Laboratory results reported in patent EP0237516A1, “Benzyl-pyrimidine derivatives, process for their preparation and compositions containing them” (COMPAGNIE ROUSSELOT, Société Anonyme:, priority 1986, dated 1987).
Values after ≈ are worked out from the molar mass of the structure shown. Like-named read-outs stand apart in the source and are kept apart here.

Legend:
[1] = system: Serratia marcescens; assay: MIC determination by serial dilution on Mueller-Hinton agar, trimethoprim-sensitive strains; assay type: cell-based; conditions: 18 h; Serratia marcescens 56644; isethionates; read-out: CMI
Experimental: (§1) A cet effet, on a déterminé l'activité bactériostatique par la méthode des antibiogrammes par dilution en milieu gélosé (milieu de MUELLER-HINTON déshydraté) et par diffusion en milieu gélosé.
(§2) On a utilisé le composé à étudier selon une gamme de concentrations de 0,625 à 640 µg/ml (progression de raison 2) à partir de solutions-mères titrant 640 µg/ml à 1280 µg/ml selon la solubilité du composé, toutes les dilutions ultérieures ayant été réalisées dans un mélange méthanol/eau à 20%.
(§3) On a procédé sur milieu gélosé de MUELLER-HINTON déshydraté, par la méthode des dilutions sériées, les concentrations finales en composé à étudier s'échelonnant de 0,0625 à 32 ou 64 µg/ml.
(§4) A cet effet, on ensemence des boîtes de PETRI à l'aide d'un inoculateur multiple (inoculum de 5 x 10³ à 1 x 10⁴ unités formant colonies par spot d'inoculation) et on enregistre le résultat après 18 h à 37°C en ne tenant pas compte des micro-colonies qui se développent parfois ni de la présence de moins de 4 colonies d'aspect normal.

[2] = system: Staphylococcus aureus; assay: as above; assay type: cell-based; conditions: isethionates, read-out: CMI
Experimental: as §1, §2, §3, §4

[3] = system: Listeria monocytogenes; assay: as above; assay type: cell-based; conditions: isethionates; for MIC: 18 h, Listeria monocytogenes 485, TMP-sensitive, read-out: CMI
Experimental: as §1, §2, §3, §4

[4] = system: Escherichia coli; assay: as above; assay type: cell-based; conditions: isethionates, read-out: CMI
Experimental: as §1, §2, §3, §4

[5] = system: souches de Staphylococcus aureus résistant à la triméthoprime; assay: MIC determination by serial dilution on Mueller-Hinton agar; assay type: cell-based; conditions: 18 h, compounds as isethionate, read-out: CMI
[6] = system: souches de Staphylococcus aureus résistant à la triméthoprime; assay: as above; assay type: cell-based; conditions: 18 h, from hospitalised patients, compounds as free base, read-out: CMI
Experimental: as §1, §2, §3, §4
Les composés sous forme basique, des Exemples 1 et 4 ont été étudiés comparativement à la triméthoprime (TMP) à l'égard de 4 souches provenant de malades hospitalisés.
A cet effet, on a solubilisé les composés à étudier sous forme basique dans un mélange comprenant 9 ml d'eau distillée, 1 ml de diméthylformamide et quelques gouttes d'acide iséthionique.

[7] = system: souches de Staphylococcus aureus résistant à la triméthoprime; assay: Bacteriostatic activity by disc diffusion on Mueller-Hinton agar; assay type: cell-based; conditions: 5 µg per disc, free base, read-out: Diamètre d'inhibition
Experimental: On utilise à cet effet le milieu gélosé de MUELLER-HINTON que l'on ensemence par inondation à partir d'une suspension bactérienne titrant 5 x 10⁶ à 1 x 10⁷ unités formant colonies par ml. On imprègne les disques (disque de 6 mm de diamètre de SCHLEICHER et SCHULL) avec 20 µl d'une solution de chaque composé à étudier de façon à obtenir une charge de 5 µg par disque. A titre de contrôle lors de chaque manipulation, on charge également un disque avec 5 µg de triméthoprime. On néglige également dans ce test les microcolonies qui peuvent apparaître à l'intérieur des zones d'inhibition.
On a obtenu les résultats suivants exprimés en mm d'inhibition, avec des composés de l'invention sous forme basique comparativement à la triméthoprime. Ces résultats ont été enregistrés vis-à-vis de souches de Staphylococcus aureus résistant à la triméthoprime.

[8] = system: bacilles à Gram -; assay: Activity in association with sulfamethoxazole; assay type: cell-based
Description: (§5) L'action du composé de l'Exemple 21 a été étudiée comparativement à l'iséthionate de triméthoprime vis-à-vis de 73 souches de bacilles à Gram -. Des résultats trouvés, on a pu conclure que 33 souches étaient résistantes au sel de triméthoprime et 65 souches étaient résistantes au composé de l'Exemple 21.
Par contre, si on associe chacun de ces composés au sulfaméthoxazole, le spectre d'activité de l'association composé de l'Exemple 21/-sulfaméthoxazole est similaire à celui de l'association de triméthoprime/ sulfaméthoxazole.

[9] = system: 73 souches de bacilles à Gram -; assay: Activity against Gram-negative bacilli, count of resistant strains; assay type: cell-based; conditions: number of resistant strains out of 73 Gram-negative bacilli strains
Description: as §5

[10] = Acute toxicity, intravenous; conditions: mouse, in vivo; mice, groups of 5, intravenous route; read-out: DL₅₀
Experimental: La toxicité aiguë des composés de l'invention a été déterminée sur des lots de 5 souris par voie intraveineuse. On a ainsi trouvé que la DL₅₀du composé de l'Exemple 9, selon cette voie d'administration, est de 157,4 mg/kg.

[11] = 18 h, Staphylococcus aureus 18839, TMP-sensitive
[12] = ATCC6338, 18 h, Staphylococcus aureus ATCC 6338, TMP-sensitive
[13] = ATCC25923, 18 h, Staphylococcus aureus ATCC 25923, TMP-sensitive
[14] = Listeria monocytogenes 378, TMP-sensitive
[15] = ATCC25922, 18 h, Escherichia coli ATCC 25922
[16] = strain No. 23543, TMP-resistant
[17] = strain No. 33274, TMP-resistant
[18] = strain No. 40314, TMP-resistant
[19] = strain No. 57760, TMP-resistant
[20] = Listeria monocytogenes 5921, TMP-sensitive
[21] = Listeria monocytogenes 6777, TMP-sensitive

## COc1cc(Cc2cnc(N)nc2N)ccc1OC1CCCC1 [Composé X, reference compound]
[1]
  MIC: 32 µg/mL (≈ 102 µM)
[2]; [11]
  MIC: 0.5 µg/mL (≈ 1.59 µM)
[2]; [12]
  MIC: 0.25 µg/mL (≈ 0.795 µM)
[2]; [13]
  MIC: 1 µg/mL (≈ 3.18 µM)
[3]
  MIC: 0.25 µg/mL (≈ 0.795 µM)
[3]; [14]
  CMI: 0,25 µg/ml
[4]; 18 h, Escherichia coli 33430
  MIC: > 64 µg/mL
[4]; [15]
  MIC: > 64 µg/mL
[5]; strain No. 82, TMP-resistant
  MIC: 32 µg/mL (≈ 102 µM)
[5]; strain No. 87, TMP-resistant
  MIC: 8 µg/mL (≈ 25.4 µM)
[5]; strain No. 101, TMP-resistant
  MIC: 32 µg/mL (≈ 102 µM)
[5]; strain No. 102, TMP-resistant
  MIC: 32 µg/mL (≈ 102 µM)

## CCOc1cc(I)c(Cc2cnc(N)nc2N)cc1OC [Ex. 1, diamino-2,4 (iodo-2 éthoxy-4 méthoxy-5 benzyl)-5 pyrimidine]
[6]; [16]
  MIC: 2 µg/mL (≈ 5 µM)
[6]; [17]
  MIC: < 0.06 µg/mL
[6]; [18]
  MIC: 0.12 µg/mL (≈ 0.3 µM)
[6]; [19]
  MIC: 1 µg/mL (≈ 2.5 µM)
[7]; [16]
  zone of inhibition at 5 µg/disc: 19 mm
[7]; [17]
  zone of inhibition at 5 µg/disc: 32 mm
[7]; [18]
  zone of inhibition at 5 µg/disc: 32 mm
[7]; [19]
  zone of inhibition at 5 µg/disc: 24 mm

## COc1cc(Cc2cnc(N)nc2N)c(I)cc1OC1CCCC1 [Ex. 4, Diamino-2,4 (iodo-2 cyclopentyloxy-4 méthoxy-5 benzyl)-5 pyrimidine]
[6]; [16]
  MIC: 2 µg/mL (≈ 4.54 µM)
[6]; [17]
  MIC: 0.25 µg/mL (≈ 0.568 µM)
[6]; [18]
  MIC: < 0.06 µg/mL
[6]; [19]
  MIC: 2 µg/mL (≈ 4.54 µM)
[7]; [16]
  zone of inhibition at 5 µg/disc: 19 mm
[7]; [17]
  zone of inhibition at 5 µg/disc: 29 mm
[7]; [18]
  zone of inhibition at 5 µg/disc: 35 mm
[7]; [19]
  zone of inhibition at 5 µg/disc: 20 mm

## COc1cc(Cc2cnc(N)nc2N)c(I)cc1OC1CCCC1 [Ex. 18, Iséthionate de diamino-2,4 (iodo-2 cyclopentyloxy-4 méthoxy-5 benzyl)-5 pyrimidine]
[5]; strain No. 82, TMP-resistant
  MIC: 2 µg/mL (≈ 4.54 µM)
[5]; strain No. 87, TMP-resistant
  MIC: 2 µg/mL (≈ 4.54 µM)
[5]; strain No. 102, TMP-resistant
  MIC: 4 µg/mL (≈ 9.09 µM)
[5]; strain No. 107, TMP-resistant
  MIC: 4 µg/mL (≈ 9.09 µM)

## COc1cc(Cc2cnc(N)nc2N)c(Br)cc1OC1CCCC1 [Ex. 21, Iséthionate de diamino-2,4 (bromo-2 cyclopentyloxy-4 méthoxy-5 benzyl)-5 pyrimidine]
[1]
  MIC: 16 µg/mL (≈ 40.7 µM)
[2]; [12]
  MIC: 0.06 µg/mL (≈ 0.153 µM)
[2]; [13]
  MIC: 0.5 µg/mL (≈ 1.27 µM)
[3]
  MIC: 0.06 µg/mL (≈ 0.153 µM)
[3]; [14]
  CMI: 0,06 µg/ml
[3]; [20]
  CMI: 0,06 µg/ml
[3]; [21]
  CMI: 0,06 µg/ml
[4]; 18 h, Escherichia coli 33430
  MIC: 16 µg/mL (≈ 40.7 µM)
[4]; [15]
  MIC: 32 µg/mL (≈ 81.4 µM)
[8]; compared with the trimethoprim salt
  potentialisation du sulfaméthoxazole: potentialise aussi bien le sulfaméthoxazole que ne le fait le sel de triméthoprime
[8]; in association with sulfaméthoxazole, compared with the association triméthoprime/sulfaméthoxazole
  spectre d'activité de l'association: similaire
[5]; strain No. 82, TMP-resistant
  MIC: 1 µg/mL (≈ 2.54 µM)
[5]; strain No. 87, TMP-resistant
  MIC: 1 µg/mL (≈ 2.54 µM)
[5]; strain No. 101, TMP-resistant
  MIC: 2 µg/mL (≈ 5.09 µM)
[5]; strain No. 102, TMP-resistant
  MIC: 1 µg/mL (≈ 2.54 µM)
[5]; strain No. 107, TMP-resistant
  MIC: 4 µg/mL (≈ 10.2 µM)
[5]; strain No. 109, TMP-resistant
  MIC: 0.5 µg/mL (≈ 1.27 µM)
[9]
  souches résistantes: 65 souches

## COc1cc(Cc2cnc(N)nc2N)c(Br)cc1OC1CCCCC1 [Ex. 24, Iséthionate de diamino-2,4 (bromo-2 cyclohexyloxy-4 méthoxy-5 benzyl)-5 pyrimidine]
[1]
  MIC: > 64 µg/mL
[2]; [11]
  MIC: 0.06 µg/mL (≈ 0.147 µM)
[2]; [12]
  MIC: 0.06 µg/mL (≈ 0.147 µM)
[3]
  MIC: 0.06 µg/mL (≈ 0.147 µM)
[3]; [14]
  CMI: 0,06 µg/ml
[3]; [20]
  CMI: 0,06 µg/ml
[3]; [21]
  CMI: 0,06 µg/ml
[4]; 18 h, Escherichia coli 33430
  MIC: > 64 µg/mL
[4]; [15]
  MIC: > 64 µg/mL
[5]; strain No. 82, TMP-resistant
  MIC: 0.5 µg/mL (≈ 1.23 µM)
[5]; strain No. 87, TMP-resistant
  MIC: 1 µg/mL (≈ 2.46 µM)
[5]; strain No. 101, TMP-resistant
  MIC: 0.5 µg/mL (≈ 1.23 µM)
[5]; strain No. 102, TMP-resistant
  MIC: 0.5 µg/mL (≈ 1.23 µM)

## CCOc1cc(I)c(Cc2cnc(N)nc2N)cc1OCC [Exemple 9, Lactobionate de diamino-2,4 (iodo-2 diéthoxy-4,5 benzyl)-5 pyrimidine]
[10]
  LD50: 157 mg/kg

## COc1cc(Cc2cnc(N)nc2N)cc(OC)c1OC [Iséthionate de TMP, iséthionate de triméthoprime, reference compound]
[1]
  MIC: 2 µg/mL (≈ 6.89 µM)
[2]; [12]
  MIC: 0.06 µg/mL (≈ 0.207 µM)
[2]; [13]
  MIC: 0.25 µg/mL (≈ 0.861 µM)
[4]; 18 h, Escherichia coli 33430
  MIC: 8 µg/mL (≈ 27.6 µM)
[4]; [15]
  MIC: 4 µg/mL (≈ 13.8 µM)
[5]; strain No. 82, TMP-resistant
  MIC: 16 µg/mL (≈ 55.1 µM)
[5]; strain No. 87, TMP-resistant
  MIC: 8 µg/mL (≈ 27.6 µM)
[5]; strain No. 101, TMP-resistant
  MIC: 16 µg/mL (≈ 55.1 µM)
[5]; strain No. 102, TMP-resistant
  MIC: 16 µg/mL (≈ 55.1 µM)
[5]; strain No. 107, TMP-resistant
  MIC: 64 µg/mL (≈ 220 µM)
[5]; strain No. 109, TMP-resistant
  MIC: 8 µg/mL (≈ 27.6 µM)
[9]
  souches résistantes: 33 souches

## COc1cc(Cc2cnc(N)nc2N)cc(OC)c1OC [TMP, diamino-2,4 (triméthoxy-3,4,5 benzyl)-5 pyrimidine, reference compound]
[6]; [16]
  MIC: 16 µg/mL (≈ 55.1 µM)
[6]; [17]
  MIC: > 64 µg/mL
[6]; [18]
  MIC: 64 µg/mL (≈ 220 µM)
[6]; [19]
  MIC: > 64 µg/mL
[7]; [16]
  zone of inhibition at 5 µg/disc: 0 mm
[7]; [17]
  zone of inhibition at 5 µg/disc: 0 mm
[7]; [18]
  zone of inhibition at 5 µg/disc: 0 mm
[7]; [19]
  zone of inhibition at 5 µg/disc: 0 mm
